Test results published in ChEMBL document CHEMBL5131460, “Glenthenamines A-F: Enamine Pyranonaphthoquinones from the Australian Pasture Plant Derived Streptomyces sp. CMB-PB042” (J Nat Prod, 2022).

Assays:
[1] = tested on: Candida albicans; assay: Antimicrobial activity against Candida albicans ATCC 10231 incubated for 16 hrs by microplate reader method; type: functional, organism-based; settings: ATCC 10231, 16 h
[2] = tested on: SW620/AD300; assay: Cytotoxicity against human SW620/AD300 cells incubated for 48 hrs by MTT assay; type: functional, cell-based; settings: SW620/AD300, 48 h
[3] = tested on: NCI-H460; assay: Cytotoxicity against human NCI-H460 cells incubated for 48 hrs by MTT assay; type: functional, cell-based; settings: NCI-H460, 48 h
[4] = molecular target: ATP-dependent translocase ABCB1 (Homo sapiens, UniProt P08183); assay: Reversal of P-glycoprotein mediated doxorubicin resistance in human SW620/AD300 cells overexpressing P-gp assessed as gain in sensitivity against doxorubicin at 2.5 uM incubated for 52 hrs by MTT assay; type: cell-based; settings: sw620/ad300, 52 h
Sequence of ATP-dependent translocase ABCB1 (P08183 whole entry): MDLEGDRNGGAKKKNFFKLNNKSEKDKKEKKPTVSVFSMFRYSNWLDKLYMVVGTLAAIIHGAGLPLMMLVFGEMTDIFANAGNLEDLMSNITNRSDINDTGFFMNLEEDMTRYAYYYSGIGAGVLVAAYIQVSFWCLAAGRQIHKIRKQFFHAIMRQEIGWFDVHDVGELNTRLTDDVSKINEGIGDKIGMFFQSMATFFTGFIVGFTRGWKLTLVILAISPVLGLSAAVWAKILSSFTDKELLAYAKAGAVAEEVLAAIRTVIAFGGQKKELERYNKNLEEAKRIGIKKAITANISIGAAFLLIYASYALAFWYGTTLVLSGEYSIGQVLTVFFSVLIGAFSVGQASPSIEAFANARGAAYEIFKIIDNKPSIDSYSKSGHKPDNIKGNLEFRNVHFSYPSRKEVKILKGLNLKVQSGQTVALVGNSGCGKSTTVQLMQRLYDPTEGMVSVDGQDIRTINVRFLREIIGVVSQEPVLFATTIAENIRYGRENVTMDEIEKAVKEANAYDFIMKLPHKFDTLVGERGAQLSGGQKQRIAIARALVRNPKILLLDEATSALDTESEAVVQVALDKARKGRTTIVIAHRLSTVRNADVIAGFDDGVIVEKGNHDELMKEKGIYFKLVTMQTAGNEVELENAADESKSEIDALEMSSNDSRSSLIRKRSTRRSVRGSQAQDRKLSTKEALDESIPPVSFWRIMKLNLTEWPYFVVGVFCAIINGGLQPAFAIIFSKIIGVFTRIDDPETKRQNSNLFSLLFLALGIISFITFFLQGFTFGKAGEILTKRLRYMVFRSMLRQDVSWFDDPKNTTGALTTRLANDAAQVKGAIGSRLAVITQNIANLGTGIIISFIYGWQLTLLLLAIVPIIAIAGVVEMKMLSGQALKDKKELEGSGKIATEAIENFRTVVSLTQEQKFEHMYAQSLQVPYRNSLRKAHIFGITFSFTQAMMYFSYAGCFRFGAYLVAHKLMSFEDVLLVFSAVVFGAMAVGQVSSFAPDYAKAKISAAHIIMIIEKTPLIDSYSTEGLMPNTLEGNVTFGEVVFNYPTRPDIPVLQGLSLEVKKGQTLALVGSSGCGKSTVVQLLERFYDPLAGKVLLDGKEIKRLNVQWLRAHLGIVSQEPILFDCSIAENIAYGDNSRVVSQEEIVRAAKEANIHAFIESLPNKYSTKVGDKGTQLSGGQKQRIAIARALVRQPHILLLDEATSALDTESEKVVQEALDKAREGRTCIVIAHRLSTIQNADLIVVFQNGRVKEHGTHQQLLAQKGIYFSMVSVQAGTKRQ

SMILES | IC50 [1] [µM] | Activity [4] [%] | IC50 [2] [µM] | IC50 [3] [µM]
C[C@H]1O[C@]2(C)CC(=O)O[C@]2(C)c2c1c(O)c1c3c(c4n(c23)[C@@H]([C@@H](C)O)CC4)C=CC1=O | > 30 | – | > 30 | > 30
C[C@@H](O)[C@@H]1CCc2c3c4c(c(O)c(O)c(C[C@@H](O)CC(=O)O)c4n21)C(=O)C=C3 | > 30 | – | > 30 | > 30
C[C@H]1OC(CC(=O)O)=Cc2c1c(O)c1c3c(c4n(c23)[C@H]([C@@H](C)O)CC4)C=CC1=O | > 30 | 45 | > 30 | > 30
C[C@@H]1O[C@@H](CC(=O)O)C(=O)c2c1c(O)c1c3c(c4n(c23)[C@H]([C@@H](C)O)CC4)C=CC1=O | > 30 | 45 | > 30 | > 30

Continued, in another order:

IC50 [1] [µM] | Activity [4] [%] | SMILES | IC50 [2] [µM] | IC50 [3] [µM]
> 30 | 45 | COC(=O)C[C@H]1Cc2c(c(O)c3c4c(c5n(c24)[C@H]([C@@H](C)O)CC5)C=CC3=O)[C@H](C)O1 | > 30 | > 30
> 30 | – | C[C@H]1Oc2c(O)c3c4c(c5n(c4c2C[C@H](CC(=O)O)O1)[C@H]([C@@H](C)O)CC5)C=CC3=O | > 30 | > 30
> 30 | 45 | C[C@@H]1OC(CC(=O)O)=Cc2c1c(O)c1c3c(c4n(c23)[C@H]([C@@H](C)O)CC4)C=CC1=O | > 30 | > 30
> 30 | 45 | C[C@H]1O[C@H](CC(=O)O)Cc2c1c(O)c1c3c(c4n(c23)[C@@H]([C@@H](C)O)CC4)C=CC1=O | > 30 | > 30
